Data reported in patent US20230374038A1, “MODULATORS OF CYSTIC FIBROSIS TRANSMEMBRANE CONDUCTANCE REGULATOR” (VERTEX PHARMACEUTICALS INCORPORATED, priority 2020, published 2023).
Values joined by “and” are separate entries in the source; they are usually repeats but may differ in a detail not shown here. Equal values may be shown once. Read-outs that look alike come from different tables or passages of the source. One block for each compound: values may come before it.

Columns and labels:
[1] = amide bond, DMF
CFTR = CFTR (Homo sapiens, UniProt P13569); assay: Membrane Potential Dye, Enteroid Assay B; assay type: cell-based; settings: for EC50: read-out: Ent. B EC50
Outline: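 Human intestinal enteroids seeded at 5000 cells/well, treated with compound 18-24 h at 37 °C, then loaded 25 min with methyl oxonol membrane-potential dye plus CaCC blockers. Chloride transport started in chloride-free buffer with 10 μM forskolin, 100 μM IBMX and 300 nM Compound III, read 15 min; expressed as % of triple-combination control.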

Chain of CFTR (P13569 with tags, fused parts or gaps DEL508-508): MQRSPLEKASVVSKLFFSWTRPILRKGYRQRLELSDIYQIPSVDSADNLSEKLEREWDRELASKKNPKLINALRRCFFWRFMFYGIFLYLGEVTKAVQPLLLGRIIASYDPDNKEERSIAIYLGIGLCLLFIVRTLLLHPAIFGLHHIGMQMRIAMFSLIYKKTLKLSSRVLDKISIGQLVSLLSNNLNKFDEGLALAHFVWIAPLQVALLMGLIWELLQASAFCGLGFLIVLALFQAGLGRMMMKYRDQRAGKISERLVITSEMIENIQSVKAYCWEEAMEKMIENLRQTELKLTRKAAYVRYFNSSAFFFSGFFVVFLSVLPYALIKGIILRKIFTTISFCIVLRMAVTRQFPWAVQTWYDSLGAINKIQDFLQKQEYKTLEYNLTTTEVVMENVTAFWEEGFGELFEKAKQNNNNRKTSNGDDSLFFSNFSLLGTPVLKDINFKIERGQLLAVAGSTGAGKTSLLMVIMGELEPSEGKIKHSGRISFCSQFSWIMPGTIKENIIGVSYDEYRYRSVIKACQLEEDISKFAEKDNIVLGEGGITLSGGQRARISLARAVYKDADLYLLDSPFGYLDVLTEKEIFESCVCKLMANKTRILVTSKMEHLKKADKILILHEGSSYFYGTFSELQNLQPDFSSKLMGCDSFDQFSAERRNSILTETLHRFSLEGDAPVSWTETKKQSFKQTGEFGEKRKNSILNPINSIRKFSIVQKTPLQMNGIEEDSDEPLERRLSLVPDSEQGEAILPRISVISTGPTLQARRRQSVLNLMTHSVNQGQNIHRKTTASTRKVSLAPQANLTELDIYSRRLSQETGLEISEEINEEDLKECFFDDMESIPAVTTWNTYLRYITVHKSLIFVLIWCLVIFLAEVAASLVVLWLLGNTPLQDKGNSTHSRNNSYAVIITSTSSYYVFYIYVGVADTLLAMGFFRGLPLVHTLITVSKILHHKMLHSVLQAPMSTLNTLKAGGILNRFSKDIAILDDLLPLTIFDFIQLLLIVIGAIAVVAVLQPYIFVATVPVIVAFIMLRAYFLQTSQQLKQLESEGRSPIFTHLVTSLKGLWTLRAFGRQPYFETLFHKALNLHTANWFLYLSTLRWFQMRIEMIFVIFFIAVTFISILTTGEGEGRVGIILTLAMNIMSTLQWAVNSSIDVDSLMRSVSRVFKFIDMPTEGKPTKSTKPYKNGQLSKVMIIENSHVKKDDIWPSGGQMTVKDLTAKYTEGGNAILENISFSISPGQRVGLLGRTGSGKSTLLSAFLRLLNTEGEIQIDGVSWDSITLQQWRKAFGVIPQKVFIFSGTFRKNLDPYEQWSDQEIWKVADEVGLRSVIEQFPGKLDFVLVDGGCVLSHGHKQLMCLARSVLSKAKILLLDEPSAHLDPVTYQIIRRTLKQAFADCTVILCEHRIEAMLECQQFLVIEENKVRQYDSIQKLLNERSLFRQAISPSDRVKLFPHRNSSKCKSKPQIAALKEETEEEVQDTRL

Compound: Cc1cccc(CC(C)C)c1-c1nc2nc(c1C(F)(F)F)OC[C@@H](CC(C)(C)C)N(Cc1ncc(N3CCOCC3)cn1)C(=O)c1cccc(c1)S(=O)(=O)N2
ring closure, yield after HPLC ([1]; from Cc1cccc(CC(C)C)c1-c1nc(NS(=O)(=O)c2cccc(C(=O)O)c2)nc(OC[C@@H](CC(C)(C)C)NCc2ncc(N3CCOCC3)cn2)c1C(F)(F)F, 13-membered ring, CDMT/NMM, 92.0 mM, 4.0 h): 37%

Ent. B Max Activity (CFTR): +++ (+++ is >60%)
EC50 (CFTR): < 1000 nM
Compound: CCc1c2nc(nc1-c1c(C)cccc1C)NS(=O)(=O)c1cccc(c1)C(=O)N(C1CC3(CC3)C1)[C@H](CC(C)C)CO2 [Compound 160, (11R)-6-(2,6-Dimethylphenyl)-7-ethyl-11-isobutyl-2,2-dioxo-12-spiro[2.3]hexan-5-yl-9-oxa-2λ^6-thia-3,5,12,19-tetrazatricyclo[12.3.1.14,8]nonadeca-1(17),4(19),5,7,14(18),15-hexaen-13-one]
ring closure, yield after HPLC ([1]; from CCc1c(OC[C@@H](CC(C)C)NC2CC3(CC3)C2)nc(NS(=O)(=O)c2cccc(C(=O)O)c2)nc1-c1c(C)cccc1C, 13-membered ring, HATU/TEA, 31.1 mM, 3.0 h): 60%

Ent. B Max Activity (CFTR): +++ (+++ is >60%)
EC50 (CFTR): < 1000 nM
Compound: Cc1cccc(C)c1-c1nc2nc(c1C(F)(F)F)OC[C@@H](CC(C)C)N(C1CC3(CC3)C1)C(=O)c1cccc(c1)S(=O)(=O)N2 [Compound 162, (11R)-6-(2,6-dimethylphenyl)-11-isobutyl-2,2-dioxo-12-spiro[2.3]hexan-5-yl-7-(trifluoromethyl)-9-oxa-2λ^6-thia-3,5,12,19-tetrazatricyclo[12.3.1.14,8]nonadeca-1(18),4(19),5,7,14,16-hexaen-13-one]
ring closure, yield after HPLC ([1]; from Cc1cccc(C)c1-c1nc(NS(=O)(=O)c2cccc(C(=O)O)c2)nc(OC[C@@H](CC(C)C)NC2CC3(CC3)C2)c1C(F)(F)F, 13-membered ring, HATU/TEA, 11.7 mM, 16.0 h): 69%

Compound: Cc1cccc(C(C)C)c1-c1nc2nc(c1C)OC[C@@H](CC(C)(C)C)N(Cc1ncc(N3CCOCC3)cn1)C(=O)c1cccc(c1)S(=O)(=O)N2
ring closure, yield after HPLC ([1]; from Cc1cccc(C(C)C)c1-c1nc(NS(=O)(=O)c2cccc(C(=O)O)c2)nc(OC[C@@H](CC(C)(C)C)NCc2ncc(N3CCOCC3)cn2)c1C, 13-membered ring, CDMT/NMM, 55.0 mM, 19.0 h): 18% and 11%

Compound: (5P,11R)-6-(2-cyclopropyl-6-methyl-phenyl)-11-(2,2-dimethylpropyl)-7-methyl-12-[(5-morpholinopyrimidin-2-yl)methyl]-2,2-dioxo-9-oxa-2^6-thia-3,5,12,19-tetrazatricyclo[12.3.1.14,8]nonadeca-1(18),4(19),5,7,14,16-hexaen-13-one
ring closure, yield after HPLC ([1]; 13-membered ring, CDMT/NMM, 122.0 mM): 25%

Ent. B Max Activity (CFTR): +++ (+++ is >60%)
EC50 (CFTR): < 1000 nM
Compound: CCc1c2nc(nc1-c1c(C)cccc1C)NS(=O)(=O)c1cccc(c1)C(=O)N[C@H](CC(C)(C)C)CO2 [Compound 161, (11R)-6-(2,6-Dimethylphenyl)-11-(2,2-dimethylpropyl)-7-ethyl-9-oxa-2λ^6-thia-3,5,12,19-tetraazatricyclo[12.3.1.14,8]nonadeca-1(18),4(19),5,7,14,16-hexaene-2,2,13-trione]
ring closure, yield after HPLC ([1]; from CCc1c(OC[C@H](N)CC(C)(C)C)nc(NS(=O)(=O)c2cccc(C(=O)O)c2)nc1-c1c(C)cccc1C, 13-membered ring, COMU/DIEA, 20.3 mM, 15.0 h): 41%

Ent. B Max Activity (CFTR): +++ (+++ is >60%)
EC50 (CFTR): < 1000 nM
Compound: Cc1cccc(C)c1-c1nc2nc(c1C)OC[C@@H](CC1(C(F)(F)F)CC1)N(C1CC3(CC3)C1)C(=O)c1cccc(c1)S(=O)(=O)N2 [Compound 50, (11R)-6-(2,6-Dimethylphenyl)-7-methyl-2,2-dioxo-12-spiro[2.3]hexan-5-yl-11-[[1-(trifluoromethyl)cyclopropyl]methyl]-9-oxa-2λ^6-thia-3,5,12,19-tetrazatricyclo[12.3.1.14,8]nonadeca-1(18),4(19),5,7,14,16-hexaen-13-one]
ring closure, yield after HPLC ([1]; from Cc1cccc(C)c1-c1nc(NS(=O)(=O)c2cccc(C(=O)O)c2)nc(OC[C@@H](CC2(C(F)(F)F)CC2)NC2CC3(CC3)C2)c1C, 13-membered ring, HATU/DIEA, 14.4 mM, 25.0 °C, 23.0 h): 44%

Compound: Cc1cccc(C)c1-c1nc2nc(c1C)OC[C@@H](CC(C)(C)C)N(C1CC3(CC(NC(=O)OC(C)(C)C)C3)C1)C(=O)c1cccc(c1)S(=O)(=O)N2 (stereo partly shown)
ring closure, yield after HPLC ([1]; from Cc1cccc(C)c1-c1nc(NS(=O)(=O)c2cccc(C(=O)O)c2)nc(OC[C@@H](CC(C)(C)C)NC2CC3(CC(NC(=O)OC(C)(C)C)C3)C2)c1C, 13-membered ring, HATU/DIEA, 14.3 mM, 72.0 h): 62%

Compound: (5P,11R)-11-(2,2-dimethylpropyl)-7-methyl-6-[2-methyl-6-(3-methylbutyl)phenyl]-12-{[5-(propan-2-yloxy)pyrimidin-2-yl]methyl}-9-oxa-2λ^6-thia-3,5,12,19-tetraazatricyclo[12.3.1.14,8]nonadeca-1(17),4(19),5,7,14(18),15-hexaene-2,2,13-trione
ring closure, yield after HPLC ([1]; 13-membered ring, CDMT/NMM, 33.8 mM): 45%

Ent. B Max Activity (CFTR): +++ (+++ is >60%)
EC50 (CFTR): < 1000 nM
Compound: Cc1cccc(C)c1-c1nc2nc(c1C)OC[C@@H](CC(C)C)N(C1CC3(CC3)C1)C(=O)c1cccc(n1)S(=O)(=O)N2 [Compound 118, (11R)-6-(2,6-Dimethylphenyl)-7-methyl-11-(2-methylpropyl)-12-{spiro[2.3]hexan-5-yl}-9-oxa-2λ^6-thia-3,5,12,18,19-pentaazatricyclo[12.3.1.14,8]nonadeca-1(17),4(19),5,7,14(18),15-hexaene-2,2,13-trione]
ring closure, yield after HPLC ([1]; from Cc1cccc(C)c1-c1nc(NS(=O)(=O)c2cccc(C(=O)O)n2)nc(OC[C@@H](CC(C)C)NC2CC3(CC3)C2)c1C, 13-membered ring, HATU/DIEA, 12.2 mM, 17.0 h): 42%

Compound: (5M,11R)-11-(2,2-dimethylpropyl)-12-({5-[(2,2-dimethylpropyl)(methyl)amino]pyrimidin-2-yl}methyl)-7-methyl-6-[2-methyl-6-(2-methylpropyl)phenyl]-9-oxa-2λ^6-thia-3,5,12,19-tetraazatricyclo[12.3.1.14,8]nonadeca-1(17),4(19),5,7,14(18),15-hexaene-2,2,13-trione
ring closure, yield after HPLC ([1]; 13-membered ring, CDMT/NMM, 2 steps): 20%

Compound: (5M,11R)-11-(2,2-dimethylpropyl)-7-methyl-6-[2-methyl-6-(3-methylbutyl)phenyl]-12-{[5-(propan-2-yloxy)pyrimidin-2-yl]methyl}-9-oxa-2λ^6-thia-3,5,12,19-tetraazatricyclo[12.3.1.14,8] nonadeca-1(17),4(19),5,7,14(18),15-hexaene-2,2,13-trione
ring closure, yield after HPLC ([1]; 13-membered ring, CDMT/NMM, 47.4 mM): 40%

Compound: Cc1ccc2cc1Oc1cc(-c3c(C)cccc3C)nc(n1)NS(=O)(=O)c1cccc(c1)NC2=O
ring closure, yield after HPLC ([1]; from Cc1ccc(C(=O)O)cc1Oc1cc(-c2c(C)cccc2C)nc(NS(=O)(=O)c2cccc(N)c2)n1, 14-membered ring, HATU/DIEA, 78.0 mM, 25.0 °C, 0.083 h, 3 steps): 26%

Compound: Cc1cccc(CC(C)(C)C)c1-c1nc2nc(c1C)OC[C@@H](CC(C)(C)C)N(Cc1ncc(N3CCC(C)(C)C3)cn1)C(=O)c1cccc(c1)S(=O)(=O)N2
ring closure, yield after HPLC ([1]; from Cc1cccc(CC(C)(C)C)c1-c1nc(NS(=O)(=O)c2cccc(C(=O)O)c2)nc(OC[C@@H](CC(C)(C)C)NCc2ncc(N3CCC(C)(C)C3)cn2)c1C, 13-membered ring, CDMT/NMM, 11.0 mM, 16.0 h, 2 steps): 11%
ring closure, yield after HPLC ([1]; from Cc1cccc(CC(C)(C)C)c1-c1nc(NS(=O)(=O)c2cccc(C(=O)O)c2)nc(OC[C@@H](CC(C)(C)C)NCc2ncc(N3CCC(C)(C)C3)cn2)c1C, 13-membered ring, CDMT/NMM, 12.0 mM, 16.0 h, 2 steps): 7%

Compound: Cc1cccc(C)c1-c1nc2nc(c1C)OC[C@@H](CC(C)(C)C)N(C1CC3(C1)CC(C(C)(C)O)C3)C(=O)c1cccc(c1)S(=O)(=O)N2 (stereo partly shown)
ring closure, yield after HPLC ([1]; from Cc1cccc(C)c1-c1nc(NS(=O)(=O)c2cccc(C(=O)O)c2)nc(OC[C@@H](CC(C)(C)C)NC2CC3(C2)CC(C(C)(C)O)C3)c1C, 13-membered ring, HATU/DIEA, 28.7 mM, 16.0 h): 6%

Compound: (5P,11R)-11-(2,2-dimethylpropyl)-12-({5-[(2,2-dimethylpropyl)(methyl)amino]pyrimidin-2-yl}methyl)-7-methyl-6-[2-methyl-6-(2-methylpropyl)phenyl]-9-oxa-2λ^6-thia-3,5,12,19-tetraazatricyclo[12.3.1.14,8]nonadeca-1(17),4(19),5,7,14(18),15-hexaene-2,2,13-trione
ring closure, yield after HPLC ([1]; 13-membered ring, CDMT/NMM, 19.0 mM, 2 steps): 11%

Compound: COc1c2nc(nc1-c1c(C)cccc1C)NS(=O)(=O)c1cccc(c1)C(=O)N(C1CC3(CCN(C(=O)OC(C)(C)C)CC3)C1)[C@H](CC(C)C)CO2
ring closure, yield after HPLC ([1]; 13-membered ring, HATU/DIEA): 22%

Compound: Cc1cccc(CC2CCOCC2)c1-c1nc2nc(c1C)OC[C@@H](CC(C)(C)C)N(Cc1ncc(N3CCOCC3)cn1)C(=O)c1cccc(c1)S(=O)(=O)N2
ring closure, yield after HPLC ([1]; from Cc1cccc(CC2CCOCC2)c1-c1nc(NS(=O)(=O)c2cccc(C(=O)O)c2)nc(OC[C@@H](CC(C)(C)C)NCc2ncc(N3CCOCC3)cn2)c1C, 13-membered ring, CDMT/NMM, 41.0 mM, 19.0 h): 25%

Compound: Cc1cccc(COC(C)C)c1-c1nc2nc(c1C)OC[C@@H](CC(C)(C)C)N(Cc1ncc(N3CCC(C)(C)C3)cn1)C(=O)c1cccc(c1)S(=O)(=O)N2
ring closure, yield after HPLC ([1]; from Cc1cccc(COC(C)C)c1-c1nc(NS(=O)(=O)c2cccc(C(=O)O)c2)nc(OC[C@@H](CC(C)(C)C)NCc2ncc(N3CCC(C)(C)C3)cn2)c1C, 13-membered ring, CDMT/NMM, 11.0 mM, 5.0 h, 2 steps): 13%

Compound: Cc1cccc(C)c1-c1nc2nc(c1C)OC[C@@H](CC(C)C)N(C1CC(OC(C)C)C1)C(=O)c1cccc(c1)S(=O)(=O)N2 (single isomer, unassigned; diastereomer 1)
ring closure, yield after HPLC ([1]; from Cc1cccc(C)c1-c1nc(NS(=O)(=O)c2cccc(C(=O)O)c2)nc(OC[C@@H](CC(C)C)NC2CC(OC(C)C)C2)c1C, 13-membered ring, HATU/DIEA, 25.0 °C, 2 steps): 9%
